Test results reported in the supplement of paper PMC8882468.

Test system: HCI-027 (organoid from a triple-negative breast cancer xenograft)
Test: CTG-3D luminescence at 96 h relative to day-0 seeding control (ratio to day 0); higher = more growth / less cytotoxicity
Protocol: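 PDxO 3D drug screen (set 2), 8-point dose, 96 h; CTG-3D luminescence normalised to day-0 seeding control (mean of 4 wells each).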

CC/C(=C(\c1ccc(O)cc1)c1ccc(OCCN(C)C)cc1)c1ccccc1 [4-hydroxytamoxifen]
CTG-3D luminescence at 96 h
Conditions | 12.5 pM | 0.00025 µM | 0.005 µM | 0.1 µM | 1 µM | 10 µM | 100 µM | 625 fM
days in culture: 145 | 1.3 | 2.12 | 1.24 | 1.83 | 1.18 | 0.699 | 0.00408 | 1.73
days in culture: 158 | 2.04 | 2.76 | 2.17 | 2.08 | 1.97 | 1.36 | 0.00947 | 4.26
days in culture: 164 | 1.94 | 2.01 | 1.46 | 2.16 | 1.19 | 1.86 | 0.0151 | 1.7
days in culture: 176 | 3.64 | 3.33 | 1.45 | 1.08 | 2.78 | 0.382 | 0.00762 | 2.5
days in culture: 186 | 1.39 | 2.63 | 2.25 | 1.45 | 0.447 | 0.154 | 0.0028 | 2.27
